This is an account of results in patent US8329447B2, “Strain of Lactobacillus crispatus” (Osel, Inc., priority 2008, dated 2012).

“Also recorded” adds a separate entry of the source.

This experiment has as its system SJ-3C cells. Kind of experiment: Agar overlay disc diffusion antibiotic susceptibility. To be noted: BBL Sensi-Disc on MRS agar overlay, 37° C. overnight anaerobically. The experiment is classed as cell-based, Lactobacillus crispatus. (In agar diffusion tests the substance spreads into inoculated agar from a disc or well.)
On to `O=C(O)c1cn(C2CC2)c2cc(N3CCNCC3)c(F)cc2c1=O` [ciprofloxacin], for which the “antibiotic susceptibility or resistance of SJ-3C” value is “resistance”.
Take `C[C@@H]1O[C@@H]1P(=O)(O)O` [fosfomycin]: the “antibiotic susceptibility or resistance of SJ-3C” value was “resistance”.
Then gentamicin, with “resistance”.
As for `Cc1noc(NS(=O)(=O)c2ccc(N)cc2)c1C` [sulfisoxazole], the “antibiotic susceptibility or resistance of SJ-3C” value is “resistance”.
Turning to sulfamethoxazole-trimethoprim, the “antibiotic susceptibility or resistance of SJ-3C” value is recorded as “resistance”.
On to `Cc1ncc([N+](=O)[O-])n1CCO` [metronidazole], for which the “antibiotic susceptibility or resistance of SJ-3C” value is “resistance”.
Take `CCC[C@@H]1C[C@@H](C(=O)N[C@@H]([C@H]2O[C@H](SC)[C@H](O)[C@@H](O)[C@H]2O)[C@@H](C)O)N(C)C1` [lincomycin]: the “antibiotic susceptibility or resistance of SJ-3C” value is on record as “resistance; also recorded: resistant”.
